# Where two headings read alike, the source gives them in different places.
# How the values were obtained:
# Type in all cases: cell-based
# [1] = test system: SW-480 (human colon cancer cells); experiment: MTT inhibition of tumor cell growth, SW-480; details: Homo sapiens
# Protocol: (§1) 1. Inoculating cells: the culture medium DMEM or RMPI1640 containing 10% fetal bovine serum was used to prepare a single cell suspension, and the cell suspension was inoculated to a 96-well plate at 5000-10000 cells per well (100 μl for each well); Adherent cells were inoculated and cultured for 12 h in advance. HL-60 (human promyelocytic leukemia cells), SMMC-7721 (human hepatoma cells), A-549 (Human lung adenocarcinoma cells), MCF-7 (human breast cancer cells), SW-480 (human colon cancer cells) were purchased from the Cell Bank of the Chinese Academy of Sciences, Shanghai.
# (§2) 2. The solution of the compound to be tested (40 μM for primary screening; 5 concentrations were set for gradient re-screening for the compounds which achieve about 50% inhibition of tumor cell growth at 40 μM) was added, the final volume of each well was 200 μl, and triplicate wells were set for each test.
# (§3) 3. Coloration: After culturing at 37° C. for 48 h, MTT solution (20 μl) was added to each well. After incubation for another 4 h, the culture was stopped. The supernatant in each well was pipetted and discarded, and 200 μl SDS solution (10%) was added to each well. Incubation was performed overnight (at 37° C.), to completely dissolve the crystal.
# (§4) 4. Colorimetric assay: ELISA Reader (Bio-Rad 680) was used to obtain the light absorption for each well at a wavelength of 595 nm, the results were recorded. A cell growth curve was plotted with the concentration as abscissa and the cell survival percentage as ordinate. The two-point method (Reed and Muench method) was used to calculate the IC50 of the compound.
# [2] = test system: Wnt signaling pathway (Top-Flash reporter gene); experiment: Top-Flash Wnt reporter gene assay in HEK293T cells with Wnt3a conditioned medium; details: Homo sapiens, HEK-293T, 6 h, 6 h
# Protocol: HEK293T cells were cultured in DMEM containing 10% fetal bovine serum (Invitrogen) at 37° C., 5% CO2. The cells were passaged every other day. The density was retained at 70˜80% during passage. L cell line (CRL-2647, purchased from the gene bank of ATCC, the US) and the control cell line (CRL-2648, purchased from ATCC, US), which stably secreted mouse Wnt3a protein, were cultured in DMEM containing 50 ug/ml G418 and 10% fetal bovine serum, at 37° C., 5% CO2. When the cells grew to a density of about 70%, the medium was replaced with DMEM containing 10% fetal bovine serum. After continuous culture for 4 days, the culture was collected and centrifuged, and the supernatant was kept so that the Wnt conditioned medium was obtained. After titration assay, the conditioned medium was quick-frozen in liquid nitrogen, and placed at −80° C. for long-term storage, so that the titer was kept unchanged.
# The cells were seeded to a 48-well plate at a density of […] cells per well, and transfected 20 h later. The reagents for plasmid transfection were calculated based on the amount in each well of the 48-well plate as following: the total amount of plasmid was 125 ng/well; the plasmid was first added to a serum-free medium (25 μL/well) and mixed well; PLUS reagent (Invitrogen) was then added in an amount of 0.5 μL/well and mixed well, then stood for 15 min; Lipofectamine (Invitrogen) liposome was added in an amount of 0.5 μL/well to serum-free DMEM medium (25 μL/well), and then mixed with the solution containing the plasmid and the PLUS, and stood for 15 min. The cells were cultured in serum-free DMEM medium (100 μL/well), and the final mixture of plasmid, PLUS and Lipofectamine were added to the cells. After incubation for 3 h, the transfection was stopped by the medium containing 10% fetal bovine serum (200 μL/well).
# The HEK293T cells used for activity assay of the report gene were transfected by the method as shown in 2). Activity assay of Wnt reporter gene: the amount of plasmid for transfection was 5 ng/well for TOP-flash and 5 ng/well for GFP plasmid as internal standard, with lacZ added to reach a total amount of 125 ng/well. […] After treating for 6 h, Boehringer Mannheim Luci-ferase Assay Kit was used to lyse cells (200 μL/well). 50 μL from each well was pipetted into a 96-well plate. The indensity of GFP protein in the cell lysate was measured by fluorimeter FL600 (BIO-TEK Inc. Winooski, Vt.), and taken as internal standard for cell transfection efficiency. 10 μL substrate of luciferase was then added to each well, and the activity of luciferase was measured by Micro Lumate Plus (Perkin Elmer Inc. Wellesley, Mass.) luminometer. Finally, GFP indensity was used as internal standard to calibrate the activity of luciferase, i.e. the activity of Wnt reporter gene.
# Calculation of IC50 (taking the calculation of IC50 of the Wnt signaling pathway for example): background (the activity as measured in the groups treated with a conditioned medium containing DMSO only) was subtracted from the reporter gene activity as measured in the groups treated by Wnt3a conditioned medium with or without the compound to be tested at different concentrations; and the obtained value was defined as the activity of the reporter gene induced by Wnt or the residual activity of the reporter gene after adding the compound to be tested. The residual activity was normalized by the activity induced by Wnt to get the relative residual activity. Then combine with the concentrations of the compound to be tested to plot a linear graph, and a dose-effect curve was fitted based on 4-parameter logistic fit. IC50 of the Wnt signaling pathway is determined as the concentration at which the relative residual activity is 0.5.
# [3] = test system: HL-60 (human promyelocytic leukemia cells); experiment: MTT inhibition of tumor cell growth, HL-60; details: Homo sapiens
# Protocol: as §1, §2, §3, §4
# [4] = test system: A-549 (Human lung adenocarcinoma cells); experiment: MTT inhibition of tumor cell growth, A-549; details: Homo sapiens
# Protocol: as §1, §2, §3, §4
# [5] = test system: SMMC-7721 (human hepatoma cells); experiment: MTT inhibition of tumor cell growth, SMMC-7721; details: Homo sapiens
# Protocol: as §1, §2, §3, §4
# [6] = test system: MCF-7 (human breast cancer cells); experiment: MTT inhibition of tumor cell growth, MCF-7; details: Homo sapiens
# Protocol: as §1, §2, §3, §4
# [7] = SW480, 48 h, Table 3, single Michael reaction acceptor, modified lactonic ring, read-out: IC50 SW-480
# [8] = Table 8, HEK293T, Wnt3a conditioned medium, read-out: IC50 (μM), inhibitory activity on the Wnt signaling pathway
# [9] = HL-60, 48 h, Table 3, single Michael reaction acceptor, modified lactonic ring
# [10] = A549, 48 h, Table 3, single Michael reaction acceptor, modified lactonic ring
# [11] = SMMC-7721, 48 h, Table 3, single Michael reaction acceptor, modified lactonic ring
# [12] = MCF7, 48 h, Table 3, single Michael reaction acceptor, modified lactonic ring
# [13] = SW480, 48 h, Table 1, 7-hydroxy derivatives of S-3, read-out: IC50 SW-480
# [14] = Table 7 (second), derivatives modified on 7-hydroxyl of S-3, HEK293T, Wnt3a conditioned medium, read-out: IC50 (μM), inhibitory activity on the Wnt signaling pathway
# [15] = HL-60, 48 h, Table 1, 7-hydroxy derivatives of S-3
# [16] = A549, 48 h, Table 1, 7-hydroxy derivatives of S-3
# [17] = SMMC-7721, 48 h, Table 1, 7-hydroxy derivatives of S-3
# [18] = MCF7, 48 h, Table 1, 7-hydroxy derivatives of S-3
# [19] = SW480, 48 h, Table 2, derivatives having potential Michael reaction acceptor, read-out: IC50 SW-480
# [20] = Table 9, HEK293T, Wnt3a conditioned medium, read-out: IC50(μM), inhibitory activity on the Wnt signaling pathway
# [21] = HL-60, 48 h, Table 2, derivatives having potential Michael reaction acceptor
# [22] = A549, 48 h, Table 2, derivatives having potential Michael reaction acceptor
# [23] = SMMC-7721, 48 h, Table 2, derivatives having potential Michael reaction acceptor
# [24] = MCF7, 48 h, Table 2, derivatives having potential Michael reaction acceptor
smiles,measurement,setting,value
C=C1C(=O)[C@]23CC[C@H]1CC2[C@@]12CCC[C@@](C)(CO[C@H]1OC)C2CC3=O (some centres unmarked) [Compound 22],IC50,[1]; [7],2.2 µM
same,IC50,"[1]; SW480, 48 h, Table 6, 7-carbonyl derivatives, read-out: IC50 SW-480, 7-carbonyl derivatives",2.56 µM
same,IC50,[2]; [8],17.6 ± 1.9 µM
same,IC50,[3]; [9],1.46 µM
same,IC50,[4]; [10],0.67 µM
same,IC50,[5]; [11],0.51 µM
same,IC50,[6]; [12],1.57 µM
C=C1C(=O)[C@]23CC[C@H]1CC2[C@@]12CCC[C@@]4(C)C(=O)N(CCO)[C@@H]1O[C@@H]3CC24 (some centres unmarked) [Compound 83],IC50,"[1]; SW480, Table 7 (first), alkaloid derivatives, 48 h, read-out: IC50 SW-480",12.4 µM
same,IC50,"[2]; read-out: IC50 (μM), inhibitory activity on the Wnt signaling pathway",> 60 µM
same,IC50,"[3]; HL-60, Table 7 (first), alkaloid derivatives, 48 h",18.6 µM
same,IC50,"[4]; A549, Table 7 (first), alkaloid derivatives, 48 h",17.9 µM
same,IC50,"[5]; SMMC-7721, Table 7 (first), alkaloid derivatives, 48 h",18.4 µM
same,IC50,"[6]; MCF7, Table 7 (first), alkaloid derivatives, 48 h",13.2 µM
C=C1C(=O)C23CC[C@H]1CC2[C@@]12CCC[C@@](C)(COC1=O)C2C[C@H]3OC(=O)C(F)(F)F (some centres unmarked) [Compound 1f],IC50,[1]; [13],7.81 µM
same,IC50,[2]; [14],20.2 ± 2.59 µM
same,IC50,[3]; [15],5.72 µM
same,IC50,[4]; [16],6.08 µM
same,IC50,[5]; [17],13 µM
same,IC50,[6]; [18],2.74 µM
C=C1C(=O)[C@]23CC[C@H]1CC2[C@@]12CCC[C@@](C)(COC1=O)C2[C@H](CN1CCOCC1)C3=O (some centres unmarked) [Compound 9],IC50,[1]; [19],7.77 µM
same,IC50,[2]; [20],8.56 ± 1.15 µM
same,IC50,[3]; [21],4.43 µM
same,IC50,[4]; [22],2.8 µM
same,IC50,[5]; [23],3.53 µM
same,IC50,[6]; [24],3.55 µM
C=C1C(=O)C23CC[C@H]1CC2[C@@]12CCC[C@@](C)(COC1=O)C2C[C@H]3OC(=O)[C@@H](C)Cl (some centres unmarked) [Compound 1i],IC50,[1]; [13],2.5 µM
same,IC50,[2]; [14],28.3 ± 2.76 µM
same,IC50,[3]; [15],3.37 µM
same,IC50,[4]; [16],2.59 µM
same,IC50,[5]; [17],3.35 µM
same,IC50,[6]; [18],2.58 µM
C=C1C(=O)[C@]23CC[C@H]1CC2[C@@]12CCC[C@@](C)(COC1)C2C[C@H]3O (some centres unmarked) [Compound 25],IC50,[1]; [7],6.33 µM
same,IC50,"[1]; SW480, 48 h, Table 6, 7-hydroxyl derivatives and controls, read-out: IC50 SW-480, 7-hydroxyl derivatives",4.12 µM
same,IC50,[2]; [8],21.7 ± 0.63 µM
same,IC50,[3]; [9],4.87 µM
same,IC50,[4]; [10],3.25 µM
same,IC50,[5]; [11],4.92 µM
same,IC50,[6]; [12],4 µM
C=C1C(=O)C23CC[C@H]1CC2[C@@]12CCC[C@@](C)(C(=O)OC1=O)C2CC3=O (some centres unmarked) [Compound 39],IC50,[1]; [7],20.7 µM
same,IC50,[2]; [8],> 60 µM
same,IC50,[3]; [9],28.8 µM
same,IC50,[4]; [10],17.5 µM
same,IC50,[5]; [11],34.8 µM
same,IC50,[6]; [12],21.5 µM
C=C1C(=O)[C@]23CC[C@H]1CC2[C@@]12CCC[C@@](C)(COC1=O)C2[C@H](CO)C3=O (some centres unmarked) [Compound 11],IC50,[1]; [19],2.8 µM
same,IC50,[2]; [20],6.89 ± 0.27 µM
same,IC50,[3]; [21],3.85 µM
same,IC50,[4]; [22],2.44 µM
same,IC50,[5]; [23],2.48 µM
same,IC50,[6]; [24],3.94 µM
C=C1C(=O)[C@]23CC[C@H]1CC2[C@@]12CCC[C@@](C)(COC1=O)C2C[C@H]3OC(=O)CCl (some centres unmarked) [Compound 1c],IC50,[1]; [13],2.86 µM
same,IC50,[2]; [14],17.9 ± 0.98 µM
same,IC50,[3]; [15],1.13 µM
same,IC50,[4]; [16],0.64 µM
same,IC50,[5]; [17],0.78 µM
same,IC50,[6]; [18],3.67 µM
C=C1C(=O)[C@@]23CC[C@@H](CC2[C@@]24CCC[C@@](C)(COC2)C14)C(=C)C3=O (some centres unmarked) [Compound 31],IC50,[1]; [19],5.43 µM
same,IC50,"[1]; SW480, 48 h, Table 5, derivatives having double Michael reaction acceptor, read-out: IC50 SW-480",0.62 µM
same,IC50,"[1]; SW480, 48 h, Table 6, double Michael reaction acceptor derivatives, read-out: IC50 SW-480, derivatives having double Michael reaction acceptor",0.45 µM
same,IC50,[2]; [20],7.1 ± 0.7 µM
same,IC50,[3]; [21],3.6 µM
same,IC50,"[3]; HL-60, 48 h, Table 5, derivatives having double Michael reaction acceptor",1.31 µM
same,IC50,[4]; [22],6.11 µM
same,IC50,"[4]; A549, 48 h, Table 5, derivatives having double Michael reaction acceptor",0.76 µM
same,IC50,[5]; [23],4.44 µM
same,IC50,"[5]; SMMC-7721, 48 h, Table 5, derivatives having double Michael reaction acceptor",1.79 µM
same,IC50,[6]; [24],8.86 µM
same,IC50,"[6]; MCF7, 48 h, Table 5, derivatives having double Michael reaction acceptor",1.71 µM
C=C1C(=O)C23CC[C@H]1CC2[C@]1(COC(C)=O)CCC[C@@](C)(COC(C)=O)C1[C@H](COC(C)=O)C3=O (some centres unmarked) [Compound 52],IC50,[1]; [19],12.9 µM
same,IC50,[2]; [20],> 60 µM
same,IC50,[3]; [21],6.33 µM
same,IC50,[4]; [22],11.1 µM
same,IC50,[5]; [23],15.4 µM
same,IC50,[6]; [24],15.1 µM
